Data on 3 molecules can be found in patent US6809065B2, “Herbicide containing substituted pyrazole derivative as active ingredient” (SDS Biotech K.K., priority 2001, dated 2004).

Data set [1] concerns Chenopodium album. As to the kind of experiment: Upland field foliage treatment (Test Example 1). Type of data set: in vivo. The note with it: foliage treatment 14th day after sowing, wettable powder, 1 kg active ingredient per hectare, evaluated 21st day after application. The source says:
(§1) In the above evaluation criteria, the term “herbicidal effect” means evaluation to the objective weeds, and a higher index of the evaluation criteria means higher herbicidal effect on the objective weeds. On the other hand, a lower index of the evaluation criteria for the crops means higher safety to the crops. A plastic pot of 130 cm^2 was filled with upland soil. Then, seeds of weeds, namely, Setaria viridis, Digitaria adscendens, Chenopodium album and Stellaria media, and seeds of crops, namely, soybean (Glycine max) and wheat (Triticum aestivum), were sowed and covered with soil of about 1 cm thick. On the 14th day after the sowing, a wettable powder composition was prepared in accordance with Formulation Example 1, diluted with water in such an amount that the amount of the active ingredient became 1 kg per hectare, and then uniformly applied to the plant leaf surfaces. On the 21st day after the application, observation and evaluation were carried out according to the aforesaid criteria.

Data set [2] relates to Digitaria adscendens. As to the kind of experiment: Upland field foliage treatment (Test Example 1). The format is in vivo. The note with it: foliage treatment 14th day after sowing, wettable powder, 1 kg active ingredient per hectare, evaluated 21st day after application.
From the text: as §1

Data set [3] deals with Setaria viridis. The data set can be described thus: Upland field foliage treatment (Test Example 1). The note with it: foliage treatment 14th day after sowing, wettable powder, 1 kg active ingredient per hectare, evaluated 21st day after application. Type of data set: in vivo.
From the text: as §1

Data set [4] deals with Stellaria media. As to the kind of experiment: Upland field foliage treatment (Test Example 1). To be noted: foliage treatment 14th day after sowing, wettable powder, 1 kg active ingredient per hectare, evaluated 21st day after application. Type of data set: in vivo.
From the text: as §1

For data set [5], the system named is soybean (Glycine max). As to the kind of experiment: Upland field foliage treatment (Test Example 1), crop. The format is in vivo. To be noted: foliage treatment 14th day after sowing, 1 kg active ingredient per hectare, evaluated 21st day, lower index = higher safety.
From the text: as §1

The subject of data set [6] is wheat (Triticum aestivum). The description is as above. The format is in vivo. The note with it: foliage treatment 14th day after sowing, 1 kg active ingredient per hectare, evaluated 21st day, lower index = higher safety.
From the text: as §1

For data set [7], the system named is Chenopodium album. The data set can be described thus: Upland soil treatment (Test Example 2). Type of data set: in vivo. To be noted: soil surface treatment next day after sowing, wettable powder, 1 kg active ingredient per hectare, evaluated 21st day after application. The source says: (§2) In the above evaluation criteria, the term “herbicidal effect” means evaluation to the objective weeds, and a higher index of the evaluation criteria means higher herbicidal effect on the objective weeds. On the other hand, a lower index of the evaluation criteria for the crops means higher safety to the crops. A plastic pot of 130 cm^2 was filled with upland soil. Then, seeds of weeds, namely, Setaria viridis, Digitaria adscendens, Chenopodium album and Stellaria media, and seeds of crops, namely, soybean (Glycine max) and wheat (Triticum aestivum), were sowed and covered with soil of about 1 cm thick. On the next day after the sowing, a wettable powder composition was prepared in accordance with Formulation Example 1, diluted with water in such an amount that the amount of the active ingredient became 1 kg per hectare, and then uniformly applied to the soil surface. On the 21st day after the application, observation and evaluation were carried out according to the aforesaid criteria.

Data set [8] concerns Digitaria adscendens. As to the kind of experiment: Upland soil treatment (Test Example 2). The format is in vivo. To be noted: soil surface treatment next day after sowing, wettable powder, 1 kg active ingredient per hectare, evaluated 21st day after application.
From the text: as §2

The test system of data set [9] is Setaria viridis. As to the kind of experiment: Upland soil treatment (Test Example 2). To be noted: soil surface treatment next day after sowing, wettable powder, 1 kg active ingredient per hectare, evaluated 21st day after application. The format is in vivo.
From the text: as §2

The subject of data set [10] is Stellaria media. As to the kind of experiment: Upland soil treatment (Test Example 2). The note with it: soil surface treatment next day after sowing, wettable powder, 1 kg active ingredient per hectare, evaluated 21st day after application. The format is in vivo.
From the text: as §2

Data set [11] concerns soybean (Glycine max). As to the kind of experiment: Upland soil treatment (Test Example 2), crop. The format is in vivo. The note with it: soil surface treatment next day after sowing, 1 kg active ingredient per hectare, evaluated 21st day, lower index = higher safety.
From the text: as §2

Data set [12] concerns wheat (Triticum aestivum). The data set can be described thus: Upland soil treatment (Test Example 2), crop. Type of data set: in vivo. The note with it: soil surface treatment next day after sowing, 1 kg active ingredient per hectare, evaluated 21st day, lower index = higher safety.
From the text: as §2

In data set [13] the test system is Echinochloa spp. As to the kind of experiment: Paddy field treatment (Test Example 3). The format is in vivo, Echinochloa crusgalli. The note with it: paddy pot, submerged 4 cm, dropped on water surface 10th day after transplantation, 1 kg active ingredient per hectare, evaluated 21st day. The method, then:
(§3) In the above evaluation criteria, the term “herbicidal effect” means evaluation to the objective weeds, and a higher index of the evaluation criteria means higher herbicidal effect on the objective weeds. On the other hand, a lower index of the evaluation criteria for the crops means higher safety to the crops. A plastic pot of 130 cm^2 was filled with paddy soil, and soil puddling was carried out to adjust the submerged depth to 4 cm. Then, seeds of Echinochloa crusgalli, Monochoria vaginalis, Ammannia multiflora and Scirpus juncoides were sowed, and rice (Oryza […], variety: Koshihikari) of two-leaf period was transplanted by 2 rice plants of 1 stub per pot at a depth of 3 cm. On the 10th day after the transplantation, a wettable powder composition was prepared in accordance with Formulation Example 1, diluted with water in such an amount that the amount of the active ingredient became 1 kg per hectare, and then dropped to diffuse on the water surface. On the 21st day after the dropping, observation and evaluation were carried out according to the aforesaid criteria.

In data set [14] the test system is Ammannia multiflora. The data set can be described thus: Paddy field treatment (Test Example 3). The format is in vivo. The note with it: paddy pot, submerged 4 cm, dropped on water surface 10th day after transplantation, 1 kg active ingredient per hectare, evaluated 21st day. The method, then:
as §3

The subject of data set [15] is Monochoria vaginalis. The data set can be described thus: Paddy field treatment (Test Example 3). The format is in vivo. To be noted: paddy pot, submerged 4 cm, dropped on water surface 10th day after transplantation, 1 kg active ingredient per hectare, evaluated 21st day. The method, then: as §3
Data set [16] deals with Scirpus juncoides. The data set can be described thus: Paddy field treatment (Test Example 3). The format is in vivo. To be noted: paddy pot, submerged 4 cm, dropped on water surface 10th day after transplantation, 1 kg active ingredient per hectare, evaluated 21st day. The method, then:
as §3

Data set [17] concerns rice (Oryza sative, variety: Koshihikari). The data set can be described thus: Paddy field treatment (Test Example 3), crop. The format is in vivo, Oryza sativa. The note with it: transplanted rice two-leaf period, water surface treatment 10th day after transplantation, 1 kg active ingredient per hectare, evaluated 21st day, lower index = higher safety. The method, then: as §3

As for `COC=C(Cn1cc(Cl)c(-c2cccc(OC)c2)n1)C(=O)OC` [Compound 16], the “Herbicidal activity Chenopodium album” value is 5 (herbicidal effect of not less than 90% by weight) in [1]; 4 (herbicidal effect of not less than 70% by weight and less than 90% by weight) in [7]. Also, the “Herbicidal activity Digitaria adscendens” value in data set [2] and in data set [8] was 5 (herbicidal effect of not less than 90% by weight) in each case. For the same molecule, the “Herbicidal activity Setaria viridis” value in data set [3] and in data set [9] was 5 (herbicidal effect of not less than 90% by weight) in each case. In addition, the “Herbicidal activity Stellaria media” value in data set [4] and in data set [10] was 5 (herbicidal effect of not less than 90% by weight) each time. The “Herbicidal activity Glycine max” value in data set [5] is 1 (herbicidal effect of not less than 10% by weight and less than 30% by weight); in [11], 0 (herbicidal effect of not less than 0% by weight and less than 10% by weight). Further, the “Herbicidal activity Triticum aestivum” value in [6] is 0 (herbicidal effect of not less than 0% by weight and less than 10% by weight); in data set [12], 0 (herbicidal effect of not less than 0% by weight and less than 10% by weight). In data set [13], the “Herbicidal activity Echinochloa spp.” value is recorded as 5 (herbicidal effect of not less than 90% by weight). Besides, the “Herbicidal activity Ammannia multiflora” value in [14] is 5 (herbicidal effect of not less than 90% by weight). For the same molecule, the “Herbicidal activity Monochoria vaginalis” value in data set [15] was 5 (herbicidal effect of not less than 90% by weight). Moreover, the “Herbicidal activity Scirpus juncoides” value in data set [16] is 5 (herbicidal effect of not less than 90% by weight). In addition, the “Herbicidal activity Oryza sativa” value in [17] is 0 (herbicidal effect of not less than 0% by weight and less than 10% by weight).

As to `COC=C(Cn1cc(Cl)c(-c2ccccc2)n1)C(=O)OC` [Compound 15], the “Herbicidal activity Chenopodium album” value in data set [1] and in data set [7] was 5 (herbicidal effect of not less than 90% by weight) in each case. For the same molecule, the “Herbicidal activity Digitaria adscendens” value in [2] and in data set [8] was 5 (herbicidal effect of not less than 90% by weight) throughout. For the same molecule, the “Herbicidal activity Setaria viridis” value in data set [3] and in data set [9] was 5 (herbicidal effect of not less than 90% by weight) each time. In addition, the “Herbicidal activity Stellaria media” value in data set [4] and in data set [10] was 5 (herbicidal effect of not less than 90% by weight) in each case. For the same molecule, the “Herbicidal activity Glycine max” value is 1 (herbicidal effect of not less than 10% by weight and less than 30% by weight) in [5]; 0 (herbicidal effect of not less than 0% by weight and less than 10% by weight) in data set [11]. Moreover, the “Herbicidal activity Triticum aestivum” value in [6] was 0 (herbicidal effect of not less than 0% by weight and less than 10% by weight); in data set [12], 0 (herbicidal effect of not less than 0% by weight and less than 10% by weight). For the same molecule, the “Herbicidal activity Echinochloa spp.” value in data set [13] is recorded as 5 (herbicidal effect of not less than 90% by weight). Besides, the “Herbicidal activity Ammannia multiflora” value in data set [14] was 5 (herbicidal effect of not less than 90% by weight). The “Herbicidal activity Monochoria vaginalis” value in data set [15] was 5 (herbicidal effect of not less than 90% by weight). In addition, in data set [16], the “Herbicidal activity Scirpus juncoides” value is 5 (herbicidal effect of not less than 90% by weight). In [17], the “Herbicidal activity Oryza sativa” value is 0 (herbicidal effect of not less than 0% by weight and less than 10% by weight).

Regarding `COC=C(Cn1nc(-c2cc(Cl)cc(Cl)c2)c(Br)c1C)C(=O)OC` [Compound 32], the “Herbicidal activity Chenopodium album” value was 4 (herbicidal effect of not less than 70% by weight and less than 90% by weight) in data set [1]; 4 (herbicidal effect of not less than 70% by weight and less than 90% by weight) in data set [7]. For the same molecule, the “Herbicidal activity Digitaria adscendens” value in data set [2] is 4 (herbicidal effect of not less than 70% by weight and less than 90% by weight); in data set [8], 4 (herbicidal effect of not less than 70% by weight and less than 90% by weight). Further, the “Herbicidal activity Setaria viridis” value in data set [3] is 4 (herbicidal effect of not less than 70% by weight and less than 90% by weight); in data set [9], 4 (herbicidal effect of not less than 70% by weight and less than 90% by weight). Further, the “Herbicidal activity Stellaria media” value was 4 (herbicidal effect of not less than 70% by weight and less than 90% by weight) in data set [4]; 4 (herbicidal effect of not less than 70% by weight and less than 90% by weight) in [10]. Moreover, the “Herbicidal activity Glycine max” value is 0 (herbicidal effect of not less than 0% by weight and less than 10% by weight) in data set [5]; 0 (herbicidal effect of not less than 0% by weight and less than 10% by weight) in data set [11]. The “Herbicidal activity Triticum aestivum” value in [6] is 0 (herbicidal effect of not less than 0% by weight and less than 10% by weight); in [12], 0 (herbicidal effect of not less than 0% by weight and less than 10% by weight). The “Herbicidal activity Echinochloa spp.” value in [13] was 3 (herbicidal effect of not less than 50% by weight and less than 70% by weight). Also, the “Herbicidal activity Ammannia multiflora” value in data set [14] was 3 (herbicidal effect of not less than 50% by weight and less than 70% by weight). The “Herbicidal activity Monochoria vaginalis” value in data set [15] is 3 (herbicidal effect of not less than 50% by weight and less than 70% by weight). Also, the “Herbicidal activity Scirpus juncoides” value in data set [16] is 3 (herbicidal effect of not less than 50% by weight and less than 70% by weight). In addition, in [17], the “Herbicidal activity Oryza sativa” value was 0 (herbicidal effect of not less than 0% by weight and less than 10% by weight).
